The source of these data is patent EP2939983A1, “Titanium dioxide-catalysed oxidation method” (Sistiana Inversiones S.L., priority 2014, dated 2015).

For series [1] the following is noted: in water; cited from earlier work.
A short description of series [2]: Rhodamine B degradation kinetics with TiO2 catalyst, H2O2 and acid in the absence of light. From the text: The walls of a beaker (Ǿ = 10 cm) were covered with aluminum foil to prevent any light exposure to the inside. A magnetic stirrer was introduced in a smaller beaker (Ǿ = 6.5 cm), which was then covered on the top with parafilm and a small hole was punched thereon. The smaller beaker was introduced concentrically into the larger one. To immobilize the inner beaker, a foam was placed between the walls of the two vessels. A cover of the same foam (Ǿ = 10 cm, 1.5 cm thick) was placed on the top of the larger beaker. In the cover, a hole (Ǿ = 0.5 cm) close to the inside wall of the inner beaker facilitated sample collection in the vortex formed during the agitation of the reaction mixture. A second hole situated on the opposite side of the first one was punched in order to facilitate pH measurements.
The catalytic reactor was placed on the stirrer (VMS-C4, VWR) at around 750 rpm. Then, the inner beaker was filled with the help of a funnel with the required amount of TiO2. Immediately afterwards, the appropriate amount of 9.8 M H2O2 and deionised water, in each case, for a total volume of 20 mL, was introduced. The mixture was stirred for 1 minute, and 20 mL of the required concentration of Rhodamine B were then added. In the cases where an acid was employed, the corresponding amount of acid to achieve a particular pH was introduced in the reaction mixture before the addition of Rhodamine B. After 3 minutes stirring, an aliquot of 1 mL was taken through a plastic Pasteur pipette and was introduced in an Eppendorf tube (1.5 mL). The sample was centrifugated (Mikro 120, Hettich Zentrifugen) at 14000 rpm for 1 minute. The supernatant was centrifugated again under the same conditions and the remaining supernatant was placed in a 1.5 mL cuvette for analysis in a spectrophotometer (Du 730, Beckman Coulter). […] Finally, the TiO2 and the liquid were reintroduced into the inner beaker. The procedure, starting with the 1 mL aliquot extraction, was repeated (at least) every 3 min for a maximum of 2 h. The experiment was repeated 4 times for every imposed condition.
Linear regressions were conducted with the obtained data. […] The kinetic constant of the reaction was the parameter used to compare the oxidative capacity of the different oxidation conditions in the method of the invention.

The conditions of series [3]: 5% H2O2, 10g/L TiO2 (aeroxide P90), pH=3 (HCl), 0.025 mM Rhodamine B; reaction order 0.66.
Source text: The accuracy of the reaction order was enhanced to be adjusted to 0.66 in this case, in order to improve the graph's sensitivity. The absorbance of Rhodamine B present in the mixture at each time point was employed to determine rate of oxidation. The first mixture was supplied with oxygen throughout the reaction at regular intervals by extracting samples and reintroducing them into the reaction mixture. The second mixture was not supplied with oxygen throughout the reaction, i.e. only samples of the initial and final mixture were taken.
The mark [4] stands for this setting: 0.025 mM Rhodamine B, 30g/L of TiO2 (aeroxide P90), 5% H2O2 solution.
Where [5] appears, read: 0.025 mM Rhodamine B, 30g/L of TiO2 (aeroxide P90), 5% H2O2 solution, pH 2.0.
Where [6] appears, read: 0.025 mM Rhodamine B, 30g/L of TiO2 (aeroxide P90), 5% H2O2 solution, pH 2.0, absence of light.
The mark [7] stands for this setting: 0.050 mM Rhodamine B, 10g/L of TiO2 (aeroxide P90), 5% H2O2 solution, pH of 2.

The pKa is the pH at which an ionisable group is half protonated. As to `O=S(O)O` [sulfurous acid], the pKa in series [1] is on record as 1.9.
In the case of `[O]=[Cr](=[O])([OH])[OH]` [chromic acid], in series [1], the pKa is recorded as -0.1.
Consider `O=C(O)C(F)(F)F` [trifluoroacetic acid], for which the pKa in series [1] is on record as -0.25.
On to `[O-][Cl+3]([O-])([O-])O` [Perchloric, perchloric acid], for which the “Rate constants for degradation kinetics (k554/min^-1), pH 1.5” value (“Rate constants … (k554/min^-1), pH 1.5” below) in series [2] (setting [4]) is 0.3550±0.1180 min^-1. For the same compound, the “Rate constants for degradation kinetics (k554/min^-1), pH 2.0” value (“Rate constants … (k554/min^-1), pH 2.0” below) in series [2] (setting [5]) is 0.1194±0.0095 min^-1. For the same compound, the figures for the “Rate constants for degradation kinetics (k544/min^-1)” value (“Rate constants … (k544/min^-1)” below) in series [2] (setting [6]) and in series [2] (setting [7]) were 0.1194 ± 0.0095 min⁻¹ and 0.0318 ± 0.0021 min⁻¹, respectively.
As for `Cl` [Hydrochloric, hydrochloric acid], in series [2], the “Rate constants … (k554/min^-1), pH 1.5” value was 0.3370±0.0990 min^-1. Also, the “Rate constants … (k554/min^-1), pH 2.0” value in series [2] (pH 2) stood at 0.1260±0.0173 min^-1.
For `O=O` [oxygen], the “kinetic constant greater than that of the reaction not supplied with oxygen” value in series [3] was “about 15%”.
As to `O=S(=O)(O)O` [Sulfuric, sulfuric acid], the “Rate constants … (k554/min^-1), pH 1.5” value in series [2] (setting [4]) came out at 0.2360±0.0430 min^-1. Moreover, the “Rate constants … (k554/min^-1), pH 2.0” value in series [2] (setting [5]) is 0.1124±0.0112 min^-1. Also, the “Rate constants … (k544/min^-1)” value in series [2] (setting [6]) worked out at 0.1124 ± 0.0112 min⁻¹; in series [2] (setting [7]) it was 0.0293 ± 0.0021 min⁻¹.
In the case of `O=CO` [Formic, formic acid, reference compound], the “Rate constants … (k544/min^-1)” value in series [2] (pH 2) was determined as 0.0263 ± 0.0035 min⁻¹.
